# Measured values: patent US8280710B2, “Method for determining thermal stability of collagen or collagen-like peptide” (University of Medicine and Dentistry of New Jersey, priority 2005, dated 2012)
# Non-standard residues stand in square brackets, D forms with d. Residues, ends and D or L forms follow the SMILES beside them. No end group written: not given here. Hyp = O=C(O)[C@@H]1C[C@@H](O)CN1
# Details: not given
# Method: The propensity measurements for all 20 amino acid residues in the Xaa1 position in a Gly-Xaa1-Hyp context and all 20 amino acid residues in the Xaa2 position in a Gly-Pro-Xaa2 context were determined by measuring thermal stability of host-guest peptides (Persikov, et al. (2000) supra).
# The Tm values of all host-guest peptides were measured under a set of standard conditions, with c=1 mg/ml in phosphate-buffered saline, pH 7.0, and with a heating rate average of 0.1° C./minute (Persikov, et al. (2004) supra).
row,Molecule,decrease in stability relative to Gly-Pro-Hyp
1,Gly-Pro-Ala,6.4 °C
2,Gly-Pro-Arg,~0 °C
3,Gly-Pro-[Hyp],21 °C

# Same assay, conditions: host-guest peptide, (Gly-Pro-Hyp)8 host; c=1 mg/ml in phosphate-buffered saline, pH 7.0, heating rate 0.1° C./minute
row,Molecule,experimentally observed Tm of Gly-Xaa1-Xaa2 tripeptide unit in a triple helix
1,Gly-Ala-[Hyp],41.7 °C
2,Gly-Gly-Ala,26.0 °C
3,Gly-Gly-Phe,19.7 °C
4,Gly-Pro-Ala,40.9 °C
5,Gly-Pro-Arg,47.2 °C
6,Gly-Pro-Gln,41.3 °C
7,Gly-Pro-Glu,39.7 °C
8,Gly-Pro-Gly,32.9 °C
9,Gly-Pro-Lys,36.8 °C
10,Gly-Pro-Pro,45.5 °C
11,Gly-Pro-Ser,35.0 °C
12,Gly-Pro-Val,40.0 °C

# Same assay, conditions: peptide of Table 3, defined standard conditions
row,Molecule,Tm^obs
1,"CC(=O)NCC(=O)N[C@@H](C)C(=O)N[C@@H](CCCNC(=N)N)C(=O)NCC(=O)N1CCC[C@H]1C(=O)N[C@@H](C)C(=O)NCC(=O)N1CCC[C@H]1C(=O)N[C@@H](CCC(N)=O)C(=O)NCC(=O)N1CCC[C@H]1C(=O)N[C@@H](CCCNC(=N)N)C(=O)NCC(=O)N[C@@H](CC(=O)O)C(=O)N[C@@H](CCCCN)C(=O)NCC(=O)N[C@@H](CCC(=O)O)C(=O)N[C@H](C(=O)NCC(=O)N1CCC[C@H]1C(=O)N1C[C@H](O)C[C@H]1C(=O)NCC(=O)N1CCC[C@H]1C(=O)N1C[C@H](O)C[C@H]1C(=O)NCC(=O)N1CCC[C@H]1C(=O)N1C[C@H](O)C[C@H]1C(=O)NCC(=O)N1CCC[C@H]1C(=O)N1C[C@H](O)C[C@H]1C(=O)NCC(=O)N[C@H](C(N)=O)C(C)C)[C@@H](C)O [T1-904, Ac-GAR-GPA-GPQ-GPR-GDK-GET-(GPO)4-GV-NH2] (Ac-GARGPAGPQGPRGDKGETGP[Hyp]GP[Hyp]GP[Hyp]GP[Hyp]GV-NH2)",30.8 °C
2,"CC[C@H](C)[C@H](NC(=O)CNC(=O)[C@H](CO)NC(=O)[C@@H]1CCCN1C(=O)CNC(=O)[C@@H]1C[C@@H](O)CN1C(=O)[C@@H]1CCCN1C(=O)CNC(=O)[C@@H](NC(=O)[C@H](CCCNC(=N)N)NC(=O)CNC(=O)[C@H](C)NC(=O)[C@H](C)NC(=O)CNC(=O)[C@@H]1C[C@@H](O)CN1C(=O)[C@H](Cc1ccccc1)NC(=O)CNC(C)=O)[C@@H](C)O)C(=O)N[C@@H](CO)C(=O)NCC(=O)N1CCC[C@H]1C(=O)N1C[C@H](O)C[C@H]1C(=O)NCC(=O)N1CCC[C@H]1C(=O)N1C[C@H](O)C[C@H]1C(=O)NCC(=O)N1CCC[C@H]1C(=O)N1C[C@H](O)C[C@H]1C(=O)NCC(=O)N1CCC[C@H]1C(=O)N1C[C@H](O)C[C@H]1C(=O)NCC(=O)N[C@H](C(N)=O)C(C)C [T1A2-697, Ac-GFO-GAA-GRT-GPO-GPS-GIS-(GPO)4-GV-NH2] (Ac-GF[Hyp]GAAGRTGP[Hyp]GPSGISGP[Hyp]GP[Hyp]GP[Hyp]GP[Hyp]GV-NH2)",<4 °C
3,"CC[C@H](C)[C@H](NC(=O)CNC(=O)[C@H](CC(C)C)NC(=O)[C@@H]1CCCN1C(=O)CNC(=O)[C@@H]1C[C@@H](O)CN1C(=O)[C@H](C)NC(=O)CNC(=O)[C@@H]1C[C@@H](O)CN1C(=O)[C@@H]1CCCN1C(=O)CNC(C)=O)C(=O)N[C@@H](C)C(=O)NCC(=O)N[C@H](C(=O)N[C@H](C(=O)NCC(=O)N[C@@H](C)C(=O)N[C@@H](CCCNC(=N)N)C(=O)NCC(=O)N[C@@H](CC(C)C)C(=O)N[C@@H](C)C(=O)NCC(=O)N1CCC[C@H]1C(=O)N1C[C@H](O)C[C@H]1C(=O)NCC(=O)N1CCC[C@H]1C(=O)N1C[C@H](O)C[C@H]1C(=O)NCC(=O)N1CCC[C@H]1C(=O)N1C[C@H](O)C[C@H]1C(=O)NCC(=O)N1CCC[C@H]1C(=O)N1C[C@H](O)C[C@H]1C(=O)NCC(=O)NCC(N)=O)[C@@H](C)O)[C@@H](C)CC [T3-772, Ac-GPO-GAO-GPL-GIA-GIT-GAR-GLA-(GPO)4-GG-NH2] (Ac-GP[Hyp]GA[Hyp]GPLGIAGITGARGLAGP[Hyp]GP[Hyp]GP[Hyp]GP[Hyp]GG-NH2)",<4 °C
4,"CC(=O)NCC(=O)N1CCC[C@H]1C(=O)N[C@@H](CCCNC(=N)N)C(=O)NCC(=O)N[C@@H](CC(N)=O)C(=O)N[C@@H](CCCNC(=N)N)C(=O)NCC(=O)N[C@@H](CCC(=O)O)C(=O)N[C@@H](CCCNC(=N)N)C(=O)NCC(=O)N[C@@H](CO)C(=O)N[C@@H](CCC(=O)O)C(=O)NCC(=O)N[C@@H](CO)C(=O)N1C[C@H](O)C[C@H]1C(=O)NCC(=O)N[C@@H](Cc1c[nH]cn1)C(=O)N1C[C@H](O)C[C@H]1C(=O)NCC(=O)N[C@@H](CCC(N)=O)C(=O)N1C[C@H](O)C[C@H]1C(=O)NCC(=O)N1CCC[C@H]1C(=O)N1C[C@H](O)C[C@H]1C(=O)NCC(=O)N1CCC[C@H]1C(=O)N1C[C@H](O)C[C@H]1C(=O)NCC(=O)N[C@@H](C)C(=O)N1C[C@H](O)C[C@H]1C(=O)NCC(=O)N[C@H](C(N)=O)C(C)C [T3-997, Ac-GPR-GNR-GER-GSE-GSO-GHO-GQO-GPO-GPO-GAO-GV-NH2] (Ac-GPRGNRGERGSEGS[Hyp]GH[Hyp]GQ[Hyp]GP[Hyp]GP[Hyp]GA[Hyp]GV-NH2)",<4 °C
5,"CC(=O)NCC(=O)N[C@@H](CCC(=O)O)C(=O)N[C@@H](CCCNC(=N)N)C(=O)NCC(=O)N[C@@H](CCC(=O)O)C(=O)N[C@@H](CCCNC(=N)N)C(=O)NCC(=O)N[C@@H](CCC(=O)O)C(=O)N[C@@H](CCCCN)C(=O)NCC(=O)N[C@@H](CCC(=O)O)C(=O)N[C@@H](CCCNC(=N)N)C(=O)NCC(=O)N[C@@H](CCC(=O)O)C(=O)N[C@@H](CCC(N)=O)C(=O)NCC(=O)N[C@@H](CCCNC(=N)N)C(=O)N[C@@H](CC(=O)O)C(=O)NCC(=O)N1CCC[C@H]1C(=O)N1C[C@H](O)C[C@H]1C(=O)NCC(=O)N1CCC[C@H]1C(=O)N1C[C@H](O)C[C@H]1C(=O)NCC(=O)N1CCC[C@H]1C(=O)N1C[C@H](O)C[C@H]1C(=O)NCC(=O)N1CCC[C@H]1C(=O)N1C[C@H](O)C[C@H]1C(=O)NCC(=O)N[C@H](C(N)=O)C(C)C [T7-2058, Ac-GER-GER-GEK-GER-GEQ-GRD-(GPO)4-GV-NH2] (Ac-GERGERGEKGERGEQGRDGP[Hyp]GP[Hyp]GP[Hyp]GP[Hyp]GV-NH2)",23.2 °C
